# Measurements as given in US9822414B2, “In vitro method for predicting in vivo genotoxicity of chemical compounds” (priority 2011, dated 2017).
# Several values for one entry are separate records, joined by “and”; a condition that tells them apart may be missing. Equal values may be shown once. Entries after “also recorded” stand apart in the source; their conditions may differ. Read-outs that look alike come from different tables or passages of the source.
# Experiments:
# [1] = system: NR0B2; assay: Gene expression of NR0B2 in HepG2 cells exposed to compound (microarray, log2 treatment:control ratio); format: cell-based, human
# [2] = system: LOC100505880; assay: Gene expression of LOC100131914/LOC100505880 in HepG2 cells exposed to compound (microarray, log2 treatment:control ratio); format: cell-based, human
# [3] = system: HepG2 cell; assay: Class prediction of in vivo genotoxicity by the method of the invention (Ames stratification plus three-gene expression in HepG2); settings: for Prediction (class prediction results using the method of the invention): 62 compounds, three replicates, HepG2 24 h
# [4] = system: HepG2 cell
# [5] = system: rodents; settings: cited from earlier work
# [6] = system: conventional in vitro genotoxicity assays; settings: cited from earlier work
# [7] = system: Salmonella typhimurium; settings: cited from earlier work
# [8] = system: PWWP2B; assay: Gene expression of PWWP2B in HepG2 cells exposed to compound (microarray, log2 treatment:control ratio); format: cell-based, human
# [9] = positive when at least one in vivo assay (MN, CA) positive, equivocal considered positive
# [10] = HepG2, Ames positive compounds, per replicate, reference value −0.099
# [11] = HepG2 cells, 24 h exposure, Ames positive compounds, one line per replicate of triplicate experiments
# [12] = HepG2, Ames positive compounds, per replicate, reference value −0.054
# [13] = HepG2, Ames positive compounds, per replicate, reference value −0.071
# [14] = HepG2 cells, 24 h exposure, Ames positive compounds, one line per replicate of triplicate experiments, listed as Fu
SMILES,NR0B2 above or below the reference value [1],LOC100505880 above or below the reference value [2],Prediction (class prediction results using the method of the invention) [3],At least ⅔ genes +? [4],Average result over three measurements [4],Standard (in vivo genotoxicity designation) ([5]; in vivo),In vitro GTX [6],Ames [7],Log2 treatment: control ratio PWWP2B [8],"In vivo GTX [5, 9]",PWWP2B above or below the reference value [8],further results
ClCc1ccccn1 [2CMP],− (minus sign indicates a value below the reference value),− (minus sign indicates a value below the reference value),NGTX,NGTX,NGTX,NGTX,+,+,−0.214 and −0.23 and −0.031,,,
CC(=O)Nc1cccc2c1-c1ccccc1C2 [4AAF],,− (minus sign indicates a value below the reference value),NGTX+,,NGTX,NGTX,+,+,,,,Log2 treatment: control ratio NR0B2 [1]: −0.04 and −0.278 and −0.088; Log2 treatment: control ratio LOC100505880 [2]: −0.217 and −0.295 and −0.101
COc1cc2c(c3oc(=O)c4c(c13)CCC4=O)[C@@H]1C=CO[C@@H]1O2 [AFB1],+ (Plus sign indicates a value above the reference value),+ (Plus sign indicates a value above the reference value),GTX,GTX,GTX,GTX,+,+,0.098 and 0.275 and 0.088,+,+ (Plus sign indicates a value above the reference value),
Cn1cnc([N+](=O)[O-])c1Sc1ncnc2nc[nH]c12 [AZA],,,,GTX,GTX,GTX,+,,,,,"NR0B2 above or below the reference value [1, 10]: + (Plus sign indicates a value above the reference value); Log2 treatment: control ratio NR0B2 [1, 11]: 1.473 and 0.232 and 0.893; LOC100505880 above or below the reference value [2, 12]: + (Plus sign indicates a value above the reference value); Log2 treatment: control ratio LOC100505880 [2, 11]: 1.541 and 0.022 and 1.33; Prediction (class prediction results using the method of the invention) [4]: GTX; In vivo GTX ([5]; in vivo): +; Ames ([7]; Ames results based on NTP data): +; PWWP2B above or below the reference value [8, 13]: + (Plus sign indicates a value above the reference value); Log2 treatment: control ratio PWWP2B [8, 11]: 0.536 and 0.044 and −0.035"
COc1ccc(N)cc1 [Anis],+ (Plus sign indicates a value above the reference value),+ (Plus sign indicates a value above the reference value),GTX,GTX,GTX,NGTX,+,+,0.013 and 0.076 and 0.253,,+ (Plus sign indicates a value above the reference value),Classification of NGTX compounds by the method of the invention (false positives) ([3]; in vivo NGTX compounds): misclassification; Results in the conventional in vitro genotoxicity assays ([6]; see Table 5): positive results
O=C(O)CCCc1ccc(N(CCCl)CCCl)cc1 [Cb],+ (Plus sign indicates a value above the reference value),+ (Plus sign indicates a value above the reference value),GTX,GTX,GTX,GTX,+,+,,+,,
Cc1c2ccccc2c(C)c2c1ccc1ccccc12 [DMBA],,,GTX+,,GTX,GTX,+,+,−0.155 and 0.088 and −0.102,+,,Log2 treatment: control ratio NR0B2 [1]: 0.064 and −0.116 and −0.076; Log2 treatment: control ratio LOC100505880 [2]: 0.08 and −0.059 and −0.025
CCN(N=O)C(N)=O [ENU],+ (Plus sign indicates a value above the reference value),,GTX,GTX,GTX,GTX,+,+,0.01 and 0.06 and 0.11,+,+ (Plus sign indicates a value above the reference value),
O=c1[nH]cc(F)c(=O)[nH]1 [FU],,,,,NGTX,GTX,+,,,,,"NR0B2 above or below the reference value [1, 10]: + (Plus sign indicates a value above the reference value); also recorded: − (minus sign indicates a value below the reference value); NR0B2 above or below the reference value ([1]; HepG2, Ames positive compounds, per replicate, reference value −0.099, listed as Fu): − (minus sign indicates a value below the reference value); Log2 treatment: control ratio NR0B2 [1, 11]: 0.781 and −0.197; Log2 treatment: control ratio NR0B2 [1, 14]: −0.457; LOC100505880 above or below the reference value [2, 12]: + (Plus sign indicates a value above the reference value); also recorded: − (minus sign indicates a value below the reference value); LOC100505880 above or below the reference value ([2]; HepG2, Ames positive compounds, per replicate, reference value −0.054, listed as Fu): − (minus sign indicates a value below the reference value); Log2 treatment: control ratio LOC100505880 [2, 11]: 0.583 and −0.067; Log2 treatment: control ratio LOC100505880 [2, 14]: −0.218; Prediction (class prediction results using the method of the invention) [4]: NGTX+; In vivo GTX ([5]; in vivo): +; Ames ([7]; Ames results based on NTP data): +; PWWP2B above or below the reference value [8, 13]: + (Plus sign indicates a value above the reference value); Log2 treatment: control ratio PWWP2B [8, 11]: 0.256 and 0.175; Log2 treatment: control ratio PWWP2B [8, 14]: 0.008"
O=c1c(O)c(-c2ccc(O)c(O)c2)oc2cc(O)cc(O)c12 [Que],,,,NGTX,NGTX,NGTX,+,,,,,"NR0B2 above or below the reference value [1, 10]: − (minus sign indicates a value below the reference value); Log2 treatment: control ratio NR0B2 [1, 11]: −0.635 and −0.69 and −3.709; Log2 treatment: control ratio LOC100505880 [2, 11]: 0.062 and −0.337 and −0.727; Prediction (class prediction results using the method of the invention) [4]: NGTX; In vivo GTX ([5]; in vivo): −; Ames ([7]; Ames results based on NTP data): +; PWWP2B above or below the reference value [8, 13]: − (minus sign indicates a value below the reference value); Log2 treatment: control ratio PWWP2B [8, 11]: −0.206 and −0.437 and −0.113"
[NH2][Pt]([NH2])([Cl])[Cl] [cisPt],+ (Plus sign indicates a value above the reference value),+ (Plus sign indicates a value above the reference value),GTX,GTX,GTX,GTX,+,+,0.095 and −0.147 and −0.18,+,,
COc1ccc(C)cc1N [pCres],+ (Plus sign indicates a value above the reference value),,GTX,GTX,GTX,GTX,+,+,,+,+ (Plus sign indicates a value above the reference value),
